Measurements taken from article PMC12524789, “The Interplay Between CB2 and NMDA Receptors in Parkinson’s Disease” (International Journal of Molecular Sciences, 2025).

Target: T1, cannabinoid receptor 2 (CB2R) (Homo sapiens, UniProt P34972)
T1 construct: gene CNR2; SNAP-tagged human CB2R in HEK-293T cells
Assay: HTRF competition binding against […] fluorophore-conjugated CM157 in HEK-293T cells; also cAMP and β-arrestin II recruitment
Assay type: cell-based

T1 sequence (P34972 whole entry): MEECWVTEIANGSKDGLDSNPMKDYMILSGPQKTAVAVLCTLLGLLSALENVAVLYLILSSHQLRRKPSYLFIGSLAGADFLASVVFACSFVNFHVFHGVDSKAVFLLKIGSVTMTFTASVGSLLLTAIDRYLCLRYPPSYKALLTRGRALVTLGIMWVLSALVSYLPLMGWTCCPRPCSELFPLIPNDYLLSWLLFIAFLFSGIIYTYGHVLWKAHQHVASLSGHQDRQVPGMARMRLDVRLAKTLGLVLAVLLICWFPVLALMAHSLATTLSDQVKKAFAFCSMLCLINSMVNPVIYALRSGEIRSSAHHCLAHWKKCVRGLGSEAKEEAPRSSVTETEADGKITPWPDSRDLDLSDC

CCCC(C)(C)c1ccc2c(c1)OC(C)(C)[C@@H]1CC=C(C)C[C@@H]21 [JWH-133]
Ki: 0.018 µM
